Measured values published in a melting point compilation (Tetko et al.; mined from patent text by program, amines drawn as free bases though some values may be those of a salt).

Row | Compound | melting point [°C]
1 | OCCOc1c(Br)cc(Br)c2cccnc12 | 128 to 131
2 | CC(=O)n1c(C(F)(F)F)nc(-c2ccc(S(C)(=O)=O)cc2)c1-c1cc(C)cc(Cl)c1 | 257
3 | CCc1cccc(CC)c1NC(=S)NC(C)C | 108 to 110
4 | COC(=O)C1OC(Oc2ccc(C=O)cc2[N+](=O)[O-])C(OC(C)=O)C(OC(C)=O)C1OC(C)=O (configuration not stated) | 180 to 182
5 | CC(CC(F)(F)F)C(N)=O (configuration not stated) | 90.5 to 91.5
6 | CCC(CC)(CC(=O)Nc1ccc2ccc(OCc3ccc4cc(F)ccc4n3)cc2c1)C(=O)O | 191 to 196
7 | COc1ccc2c(c1)cc(Cc1cc3cccc(OC)c3n1S(=O)(=O)c1ccccc1)n2S(=O)(=O)c1ccccc1 | 168 to 170
8 | CCOC(=O)c1c(C(F)(F)F)nc(C(F)(F)Cl)c(C(=O)OC)c1N | 69 to 70
9 | C1=CCc2c3c(c4ccccc4c2=C1)=c1c(c2ccccc2c2ccccc12)=C3 | 276 to 278
10 | CC[C@H](C)[C@H](NC(=O)O[C@@H](CC(C)C)C(=O)OCc1ccccc1)C(=O)NC1CCCCC1 | 98 to 100
11 | CCCN1CCc2c(c(Br)cc([N+](=O)[O-])c2NC(C)=O)C1 | 166 to 167
12 | CCOC(=O)C1=C(N)N=C(OCC)C(C(=O)OCC)C1c1cccc([N+](=O)[O-])c1 (configuration not stated) | 129
13 | O=C(NCCO)C1=CNc2cccnc2S1 | 192 to 195
14 | CCn1c(C)nc(N2CCc3nc(N)sc3CC2)c([N+](=O)[O-])c1=O | > 200
15 | CCOC(=O)Cn1nc(-c2ccc(OC)cc2)cc(C(=O)OCC)c1=O | 77.1 to 77.8
16 | CCCCCCCCCCCNC(=O)N(CC)CC | 33 to 35
17 | COc1cccc(CO)c1F | 53 to 57
18 | Cc1ccc(-c2ccc(=S)[nH]n2)c(OCC(O)CNC(C)(C)C)c1 (configuration not stated) | 135 to 140
19 | Cc1ccc(C(=O)Nc2ccc(CCc3ccc(O)c(O)c3)cc2)c(O)c1 | 201 to 202
20 | CN(C)C(=O)ON=C1COCS1 | 87.5 to 88
21 | C[C@@H](O)C(=O)OC(C)(C)C | 41 to 42
22 | COc1cc2c(cc1OCCN(C)C)N(C(=O)c1ccc(-c3ccc(-c4noc(C)n4)cc3C)cc1)CCC2 | 139 to 141
23 | COC(=O)c1ccc(CCC(C=Cc2ccc(O)c(OC)c2)=NO)o1 | 110 to 125
24 | CCCCCCCCCCCCc1nnn(C(C(N)=O)c2c(C(C)C)cccc2C(C)C)n1 (configuration not stated) | 91 to 93
25 | C=CCOC(=O)c1ccc(NC(=O)C(=NO)c2ccc3c(c2)C(C)(C)CCC3(C)C)cc1O | 108 to 109
26 | Cc1ccc(S(=O)(=O)OCC2Cc3cccc(Br)c3O2)cc1 (configuration not stated) | 120 to 122

Row | Compound | melting point [°C]
27 | COc1ccc(N2CCN(c3ccccn3)CC2)cc1 | 126
28 | CS(=O)(=O)Nc1cc(-c2ccc(S(C)(=O)=O)cc2)c(-c2ccc(F)cc2)s1 | 87 to 90
29 | COc1ccc(NC=O)c(C=O)c1 | 125 to 127
30 | COc1cc2c(cc1-c1ccccc1F)NC(=O)CC(c1cccc(C#N)c1)=N2 | 245 to 247
31 | CCOC(=O)c1cccc(CCC(CO)n2cnc(C(N)=O)c2)c1 (configuration not stated) | 92 to 95
32 | COC(=O)CCC(=O)c1cc(C(C)C)c(Oc2nnnn2-c2ccccc2)c(C(C)C)c1 | 122 to 123
33 | Cc1c(C)c2c(c(C)c1OCc1ccc(S(C)=O)cc1)C(c1ccc(C(C)C)cc1)C(C)(C)O2 (configuration not stated) | 132 to 134
34 | COc1cc2c(cc1/C=C/CCO)[nH]c1cc(-c3ccccc3Cl)c3c(c12)C(=O)NC3=O | 271 to 275
35 | CCCCCCCCCC(=O)OC1=C(c2nnc(CCCCCCCCC)o2)N(C)S(=O)(=O)c2ccccc21 | 68 to 69
36 | NS(=O)(=O)c1ccc(NN=C2C(=O)Nc3cc(Br)ccc32)cc1 | > 250
37 | O=C(CN1CC(c2ccc(F)cc2)CC1=O)ON1C(=O)CCC1=O (configuration not stated) | 120 to 123
38 | c1cc(Cn2ncc3c(N4CCNCC4)ncnc32)ccn1 | 121
39 | O=C(/C=C/c1c[nH]c2ccccc12)c1cccnc1 | 192 to 194
40 | Cc1[nH]c(C(=O)O)c(C)c1C=O | 233 to 237
41 | CC(=O)CCN(Cc1ccccc1)Cc1ccccc1 | 58 to 59
42 | CCCc1nn(C)c2c(=O)[nH]c(-c3cc([N+](=O)[O-])cnc3OC3CCC3)nc12 | 212 to 214
43 | Cc1c(Cl)cc(C(C)(C)C)c(O)c1-c1nc2ccc(F)cc2c(=O)[nH]1 | 224 to 225
44 | CCOC(=O)c1c(-c2ccc(O)cc2)nc2ccccn12 | 220
45 | CN(O)C(=O)Nc1ccc(S(C)(=O)=O)cc1 | 198
46 | Cc1cc2c(c(C)c1N)CCO2 | 85 to 86
47 | CC(C)Oc1ccc(/C=C/C(=O)O)c(Oc2ncc(C(F)(F)F)cc2Cl)c1 | 138 to 140
48 | CC(C)(C)OC(=O)c1nc(C2CC2)[nH]c(=O)c1OCc1ccccc1 | 164
49 | CCOC(=O)n1c(Cc2ccccc2)noc1=O | 129
50 | CCc1[nH]c(=S)[nH]c1C(=O)c1ccncc1 | 275
51 | CCCNS(=O)(=O)Nc1ncccc1C(=O)OC | 208 to 210
52 | CCOC(=O)C(C)(C)n1c(=O)[nH]c2cccc(F)c2c1=O | 168 to 170
